Where two headings read alike, the source gives them in different places.
Tests used:
[1] = test system: Key Broadleaf Weed and Crop Species; test: Post-emergent Test II herbicidal activity (Table 5); format: in vivo; settings: post-emergence, 336 h, 14 days after application; for pest or weed control at 70 g/ha: application rate 70 g ai/ha; for pest or weed control at 140 g/ha: application rate 140 g ai/ha
Procedure, shortened: (§1)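 Injury was rated visually 14 d after treatment on a 0–100% scale against untreated controls. Test compounds, formulated with crop oil concentrate and surfactant and serially diluted down to 1/16× of the top rate, were applied by track sprayer at 187 L/ha onto first- to second-true-leaf seedlings.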

[2] = test system: Key Grass and Sedge Weeds as well as Grass Crops; test: Post-emergent Test II herbicidal activity (Table 6); format: in vivo; settings: post-emergence, 336 h; for pest or weed control at 70 g/ha: 70 g ai/ha; for pest or weed control at 140 g/ha: 140 g ai/ha
Procedure, shortened: as §1

[3] = ABUTH: velvetleaf (Abutilon theophrasti), read-out: Visual Growth Reduction (%) 14 Days After Application, ABUTH
[4] = AMARE: redroot pigweed (Amaranthus retroflexus), read-out: Visual Growth Reduction (%) 14 Days After Application, AMARE
[5] = BRSNN: oilseed-rape, canola (Brassica napus), read-out: Visual Growth Reduction (%) 14 Days After Application, BRSNN
[6] = CHEAL: lambsquarters (Chenopodium album), read-out: Visual Growth Reduction (%) 14 Days After Application, CHEAL
[7] = EPHHL: wild poinsettia (Euphorbia heterophylla), read-out: Visual Growth Reduction (%) 14 Days After Application, EPHHL
[8] = HELAN: sunflower (Helianthus annuus), read-out: Visual Growth Reduction (%) 14 Days After Application, HELAN
[9] = VIOTR: wild pansy (Viola tricolor), read-out: Visual Growth Reduction (%) 14 Days After Application, VIOTR
[10] = CYPES: yellow nutsedge (Cyperus esculentus), read-out: Visual Growth Reduction (%) 14 Days After Application, CYPES
[11] = DIGSA: crabgrass (Digitaria sanguinalis), read-out: Visual Growth Reduction (%) 14 Days After Application, DIGSA
[12] = ECHCG: barnyardgrass (Echinochloa crus-galli), read-out: Visual Growth Reduction (%) 14 Days After Application, ECHCG
[13] = ORYSA: rice (Oryza sativa), crop, read-out: Visual Growth Reduction (%) 14 Days After Application, ORYSA
[14] = SETFA: giant foxtail (Setaria faberi), read-out: Visual Growth Reduction (%) 14 Days After Application, SETFA
[15] = SORVU: grain sorghum (Sorghum vulgare), read-out: Visual Growth Reduction (%) 14 Days After Application, SORVU
[16] = TRZSS (wheat, Triticum aestivum), crop, read-out: Visual Growth Reduction (%) 14 Days After Application, TRZSS
[17] = ZEAMX: maize, corn (Zea mays), crop, read-out: Visual Growth Reduction (%) 14 Days After Application, ZEAMX

Structure (SMILES)	pest or weed control at 70 g/ha [1, 3] [%]	pest or weed control at 140 g/ha [1, 3] [%]	pest or weed control at 70 g/ha [1, 4] [%]	pest or weed control at 140 g/ha [1, 4] [%]	pest or weed control at 70 g/ha [1, 5] [%]	pest or weed control at 140 g/ha [1, 5] [%]	pest or weed control at 70 g/ha [1, 6] [%]	pest or weed control at 140 g/ha [1, 6] [%]	pest or weed control at 70 g/ha [1, 7] [%]	pest or weed control at 140 g/ha [1, 7] [%]	pest or weed control at 70 g/ha [1, 8] [%]	pest or weed control at 140 g/ha [1, 8] [%]	pest or weed control at 70 g/ha [1, 9] [%]	pest or weed control at 140 g/ha [1, 9] [%]	pest or weed control at 140 g/ha [2, 10] [%]	pest or weed control at 70 g/ha [2, 11] [%]	pest or weed control at 140 g/ha [2, 11] [%]	pest or weed control at 70 g/ha [2, 12] [%]	pest or weed control at 140 g/ha [2, 12] [%]	pest or weed control at 70 g/ha [2, 13] [%]	further results
Nc1cc(-c2ccc(Br)c(F)c2F)nc(C(=O)O)c1Cl [Compound 91]	85 to 94	95 to 100	95 to 100	95 to 100	75 to 84	85 to 94	85 to 94	85 to 94	95 to 100	95 to 100	85 to 94	85 to 94	95 to 100	95 to 100	95 to 100	85 to 94	85 to 94	95 to 100	95 to 100	0 to 29	pest or weed control at 70 g/ha [2, 10]: 95 to 100%; pest or weed control at 140 g/ha [2, 13]: 0 to 29%; pest or weed control at 70 g/ha [2, 14]: 75 to 84%; pest or weed control at 140 g/ha [2, 14]: 85 to 94%; pest or weed control at 70 g/ha [2, 15]: 75 to 84%; pest or weed control at 140 g/ha [2, 15]: 75 to 84%; pest or weed control at 70 g/ha [2, 16]: 45 to 59%; pest or weed control at 140 g/ha [2, 16]: 45 to 59%; pest or weed control at 70 g/ha [2, 17]: 85 to 94%; pest or weed control at 140 g/ha [2, 17]: 85 to 94%; melting point: 173 to 175 °C
COC(=O)c1nc(-c2ccc(I)c(F)c2F)c(F)c(N)c1Cl [Compound 99]	95 to 100	95 to 100	95 to 100	95 to 100	95 to 100	95 to 100	95 to 100	95 to 100	95 to 100	95 to 100	95 to 100	95 to 100	95 to 100	95 to 100	95 to 100	75 to 84	85 to 94	95 to 100	95 to 100	0 to 29	pest or weed control at 140 g/ha [2, 13]: 0 to 29%; pest or weed control at 70 g/ha [2, 14]: 95 to 100%; pest or weed control at 140 g/ha [2, 14]: 95 to 100%; pest or weed control at 70 g/ha [2, 15]: 95 to 100%; pest or weed control at 140 g/ha [2, 15]: 95 to 100%; pest or weed control at 70 g/ha [2, 16]: 45 to 59%; pest or weed control at 140 g/ha [2, 16]: 60 to 74%; pest or weed control at 70 g/ha [2, 17]: 95 to 100%; pest or weed control at 140 g/ha [2, 17]: 95 to 100%; melting point: 168 to 170 °C
COC(=O)c1nc(-c2ccc(OC(F)F)cc2F)c(F)c(N)c1Cl [Compound 104]	45 to 59	45 to 59	0 to 29	0 to 29	0 to 29	0 to 29	0 to 29	0 to 29	75 to 84	85 to 94	75 to 84	75 to 84	0 to 29	0 to 29	45 to 59	0 to 29	0 to 29	0 to 29	0 to 29	0 to 29	pest or weed control at 70 g/ha [2, 10]: 0 to 29%; pest or weed control at 140 g/ha [2, 13]: 0 to 29%; pest or weed control at 70 g/ha [2, 14]: 0 to 29%; pest or weed control at 140 g/ha [2, 14]: 0 to 29%; pest or weed control at 70 g/ha [2, 15]: 0 to 29%; pest or weed control at 140 g/ha [2, 15]: 45 to 59%; pest or weed control at 70 g/ha [2, 16]: 0 to 29%; pest or weed control at 140 g/ha [2, 16]: 0 to 29%; pest or weed control at 70 g/ha [2, 17]: 45 to 59%; pest or weed control at 140 g/ha [2, 17]: 95 to 100%; melting point: 127 to 129 °C
C#Cc1ccc(-c2nc(C(=O)O)c(Cl)c(N)c2F)c(F)c1 [Compound 108]	45 to 59	75 to 84	75 to 84	95 to 100	85 to 94	85 to 94	60 to 74	75 to 84	85 to 94	95 to 100	85 to 94	95 to 100	0 to 29	45 to 59	30 to 44	60 to 74	60 to 74	45 to 59	75 to 84	0 to 29	pest or weed control at 70 g/ha [2, 10]: 45 to 59%; pest or weed control at 140 g/ha [2, 13]: 0 to 29%; pest or weed control at 70 g/ha [2, 14]: 45 to 59%; pest or weed control at 140 g/ha [2, 14]: 30 to 44%; pest or weed control at 70 g/ha [2, 15]: 0 to 29%; pest or weed control at 140 g/ha [2, 15]: 30 to 44%; pest or weed control at 70 g/ha [2, 16]: 30 to 44%; pest or weed control at 140 g/ha [2, 16]: 30 to 44%; pest or weed control at 70 g/ha [2, 17]: 0 to 29%; pest or weed control at 140 g/ha [2, 17]: 45 to 59%; melting point: 165 to 175 °C (dec.)
C#Cc1ccc(-c2nc(C(=O)OC)c(Cl)c(N)c2F)c(F)c1 [Compound 121]	85 to 94	85 to 94	0 to 29	0 to 29	85 to 94	95 to 100	75 to 84	95 to 100	45 to 59	95 to 100	85 to 94	95 to 100	0 to 29	0 to 29	45 to 59	0 to 29	0 to 29	0 to 29	0 to 29	0 to 29	pest or weed control at 70 g/ha [2, 10]: 45 to 59%; pest or weed control at 140 g/ha [2, 13]: 0 to 29%; pest or weed control at 70 g/ha [2, 14]: 0 to 29%; pest or weed control at 140 g/ha [2, 14]: 0 to 29%; pest or weed control at 70 g/ha [2, 15]: 45 to 59%; pest or weed control at 140 g/ha [2, 15]: 60 to 74%; pest or weed control at 70 g/ha [2, 16]: 0 to 29%; pest or weed control at 140 g/ha [2, 16]: 0 to 29%; pest or weed control at 70 g/ha [2, 17]: 95 to 100%; pest or weed control at 140 g/ha [2, 17]: 95 to 100%; melting point: 186 to 188 °C
